Activity calls are given as the source filed them.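 Rule for the calls: active = GFP ratio to DMSO above 1.5 or below 0.66; inactive = the rest.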
How the values were obtained:
Experiment in all cases: expression changes of rapamycin-responsive GFP fusion proteins, S. cerevisiae, GFP-tagged clone panel, flow cytometry (AID 504473);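 note: median GFP fluorescence of the cells measured by high-throughput flow cytometry; test concentration not given here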
Conditions in all cases: S. cerevisiae GFP-tagged strains, 3 h
YJL144W = system: YJL144W
YJR148W = system: YJR148W
YKL086W = system: YKL086W
YKL103C = system: YKL103C
YKL119C = system: YKL119C
YKR039W = system: YKR039W
YKR093W = system: YKR093W
YKR094C = system: YKR094C
YLL026W = system: YLL026W
YLL039C = system: YLL039C
YLR058C = system: YLR058C
YLR109W = system: YLR109W
YLR142W = system: YLR142W
YLR185W = system: YLR185W
YLR237W = system: YLR237W
YLR287C-A = system: YLR287C-A
YLR367W = system: YLR367W
YML004C = system: YML004C
YML026C = system: YML026C
YML034W = system: YML034W
YML063W = system: YML063W
YML128C = system: YML128C
YMR105C = system: YMR105C
YMR120C = system: YMR120C
YMR251W-A = system: YMR251W-A
YMR307W = system: YMR307W
YNL015W = system: YNL015W
YNL068C = system: YNL068C
YNL112W = system: YNL112W
YNL142W = system: YNL142W
YNL214W = system: YNL214W
YNR001C = system: YNR001C
YOL052C-A = system: YOL052C-A
YOR038C = system: YOR038C
YOR063W = system: YOR063W
YOR136W = system: YOR136W
YOR173W = system: YOR173W
YOR182C = system: YOR182C
YOR371C = system: YOR371C
YOR375C = system: YOR375C
YPL111W = system: YPL111W
YPL131W = system: YPL131W
YPL150W = system: YPL150W
YPL220W = system: YPL220W
YPL265W = system: YPL265W
YPR132W = system: YPR132W
YPR145W = system: YPR145W
YPR184W = system: YPR184W

Compound: CNc1nc(N)c([N+](=O)[O-])c(Nc2ccccc2)n1
- GFP ratio to DMSO (YJL144W): 0.911 (inactive)
- GFP ratio to DMSO (YJR148W): 1.26 (inactive)
- GFP ratio to DMSO (YKL086W): 0.881 (inactive)
- GFP ratio to DMSO (YKL103C): 0.988 (inactive)
- GFP ratio to DMSO (YKL119C): 0.959 (inactive)
- GFP ratio to DMSO (YKR039W): 0.804 (inactive)
- GFP ratio to DMSO (YKR093W): 1.17 (inactive)
- GFP ratio to DMSO (YKR094C): 1.11 (inactive)
- GFP ratio to DMSO (YLL026W): 1 (inactive)
- GFP ratio to DMSO (YLL039C): 0.733 (inactive)
- GFP ratio to DMSO (YLR058C): 0.838 (inactive)
- GFP ratio to DMSO (YLR109W): 1.17 (inactive)
- GFP ratio to DMSO (YLR142W): 0.866 (inactive)
- GFP ratio to DMSO (YLR185W): 1.08 (inactive)
- GFP ratio to DMSO (YLR237W): 0.848 (inactive)
- GFP ratio to DMSO (YLR287C-A): 1.1 (inactive)
- GFP ratio to DMSO (YLR367W): 1.06 (inactive)
- GFP ratio to DMSO (YML004C): 0.838 (inactive)
- GFP ratio to DMSO (YML026C): 0.957 (inactive)
- GFP ratio to DMSO (YML034W): 0.814 (inactive)
- GFP ratio to DMSO (YML063W): 1.07 (inactive)
- GFP ratio to DMSO (YML128C): 0.827 (inactive)
- GFP ratio to DMSO (YMR105C): 1.02 (inactive)
- GFP ratio to DMSO (YMR120C): 0.519
- GFP ratio to DMSO (YMR251W-A): 0.892 (inactive)
- GFP ratio to DMSO (YMR307W): 1.05 (inactive)
- GFP ratio to DMSO (YNL015W): 0.929 (inactive)
- GFP ratio to DMSO (YNL068C): 0.902 (inactive)
- GFP ratio to DMSO (YNL112W): 1.12 (inactive)
- GFP ratio to DMSO (YNL142W): 0.933 (inactive)
- GFP ratio to DMSO (YNL214W): 1.01 (inactive)
- GFP ratio to DMSO (YNR001C): 1.05 (inactive)
- GFP ratio to DMSO (YOL052C-A): 0.961 (inactive)
- GFP ratio to DMSO (YOR038C): 0.966 (inactive)
- GFP ratio to DMSO (YOR063W): 1.07 (inactive)
- GFP ratio to DMSO (YOR136W): 1.11 (inactive)
- GFP ratio to DMSO (YOR173W): 0.941 (inactive)
- GFP ratio to DMSO (YOR182C): 1.02 (inactive)
- GFP ratio to DMSO (YOR371C): 0.844 (inactive)
- GFP ratio to DMSO (YOR375C): 1.03 (inactive)
- GFP ratio to DMSO (YPL111W): 1.02 (inactive)
- GFP ratio to DMSO (YPL131W): 1.14 (inactive)
- GFP ratio to DMSO (YPL150W): 0.843 (inactive)
- GFP ratio to DMSO (YPL220W): 1.01 (inactive)
- GFP ratio to DMSO (YPL265W): 1.38 (inactive)
- GFP ratio to DMSO (YPR132W): 1.18 (inactive)
- GFP ratio to DMSO (YPR145W): 1.17 (inactive)
- GFP ratio to DMSO (YPR184W): 0.886 (inactive)
